In patent US20230338463A1, “ICD PEPTIDE AND USE THEREOF FOR HAVING CYTOTOXIC ACTIVITY ON CANCER CELLS” (NATIONAL TSING HUA UNIVERSITY, priority 2022, published 2023):
Non-standard residues stand in square brackets, D forms with d. Residues, ends and D or L forms follow the SMILES beside them. 2Nal = N[C@@H](Cc1ccc2ccccc2c1)C(=O)O

Columns and labels:
[1] = test system: MN-11 cell line; format: cell-based, murine; conditions: 2 h
Method: Besides, evaluation of the killing kinetics of Nal-P-113, Bip-P-113 and Dip-P-113 for MN-11 was determined by MTT assay. Two-fold half 1inhibitory concentration (2 × IC50) was chosen for the experiments and the results were recorded at selected time points (30 mins, 1 hour, 2 hours and 4 hours). […] In 2 hours, the cell survival rate was near 50%.

[2] = test system: MN-11 cells; assay: Extracellular HMGB1 Western blot, MN-11; format: cell-based, murine
Method: On the other hand, The MN-11 cells were seeded at the density of 1 × 10^5 cells/well and left to adhere for 24 hrs. Cells were treated with Nal-P-113, Bip-P-113 and Dip-P-113 at 2× IC50 for 1 and 4 hours. After treatment of the peptides, the supernatant and lysate of the cells were collected separately for further experiments. The supernatant was collected after centrifugation at the speed of 1,400 ×g. The cell lysate was washed twice using PBS before the sonication of the pellet using bio-disruptor, and the disrupted pellet was centrifuged again for 10 minutes under 14,000 rpm at 4° C. The concentration of the samples was quantified using the Bradford assay. Both supernatants and cell lysate were loaded and run on the sodium dodecyl sulfate polyacrylamide gel electrophoresis (SDS-PAGE), and then electro transferred to a polyvinylidene difluoride (PVDF) membrane (Merck-Millipore, Burlington, Massachusetts, United States) in electro-blot system, 30 V, 400 mA, for 75 mins. The membrane was incubated in blocking buffer (5% skim milk, TBST buffer) for 1 hour in room temperature and washed in TBST buffer three times. […] The secondary antibody of rabbit (diluted in 1: 10000) was incubated following the rinsing with PBST three times for 2 hours the next day in the room temperature before being developed using luminol reagent and imaged by a detected system (ImageQuant LAS 4000 mini).

[3] = test system: MN-11 cells; assay: DCFDA cellular ROS detection, MN-11; format: cell-based, murine; conditions: MN-11, 2 × IC50, 2-hour treatment
Method: However, MN-11 cells were seeded at the density of 25,000 cells/well in the 96-well black plate and allowed to adhere for 24 hours. Cells were washed with a 100 µL/well of PBS to remove the RPMI 1640 medium, and incubated with 100 µL of the 25 µM DCFDA solution for 45 minutes at 37° C. in the dark condition. 100 µL/ well of PBS buffer was washed again for the removal of 25 µM DCFDA solution. The MN-11 cells were treated with Nal-P-113, Bip-P-113 and Dip-P-113 at 2× IC50 for 2 hours. Cells incubated with DMEM without phenol red was used as negative control, and the positive control was tertbutyl hydroperoxide (TBHP) diluted in the 1x Supplemented Buffer. The fluorescence intensity of cellular ROS was determined to an excitation wavelength of 485 nm and an emission wavelength of 535 nm on the Wallac VICTOR 3 Multilabel plate reader (PerkinElmer, Shelton, CT, USA).

[4] = test system: PC 9 cells; assay: Luciferin-luciferase extracellular ATP, PC 9; format: cell-based, human; conditions: PC 9, 2 × IC50, peak at 0.5 hour
Method: The ATP release from cancer cells were measured using the luciferin-luciferase assay as ATP release had been the iconic feature for immunogenic cell death (ICD).
PC 9 cells were seeded in the 96 well plate at the density of 10,000 cells/ well and allowed to adhere for 48 hours in the condition described previously for MTT assay. […] All of the three ICD peptides were dissolved in the serum-free RPMI 1640 medium for the cells’ treatment. Cells were treated with serum-free RPMI 1640 medium containing PBS as the control group. After being treated for 0.5, 1, 1.5, and 2 hours, the supernatant of cells was collected separately and stored at -20° C. before the ATP assay. The aliquot of reconstituted rL/L reagent in the ENLITEN ATP assay kit (Promega, Madison, WI, USA) was incubated at room temperature for one hour before using. The collected supernatant of the cells was centrifuged at the speed of 500 xg for 10 minutes and took out 100 µL of the supernatant into the black 96 well plate with clear bottom to avoid cross-talk between wells. […] Measurement of the extracellular ATP chemiluminescence was completed using the Wallac VICTOR 3 Multilabel plate reader (PerkinElmer, Shelton, CT, USA)

[5] = test system: MN-11 cells; assay: Extracellular cytochrome c ELISA, MN-11; format: cell-based, murine
Method: The cells were treated with 2× IC50 Nal-P-113 (FIG. 8A), Bip-P-113 (FIG. 8B), and Dip-P-113 (FIG. 8C) for 0.5, 1, 1.5, 2, and 4 h, respectively. Untreated cells were used as a control. Results are presented as mean ± SD of three independent experiments. **P<0.01; ***P<0.001 compared with control.
Not only that the amount of supernatant cytochrome c release from MN-11 cells was measured by ELISA assay to reveal peptide induced mitochondrial DAMPs. Five time points (0.5, 1, 1.5, 2 and 4 hours) were used to quantify the amount of cytochrome c released and the results were shown in FIGS. 8A-8C. Nal-P-113 (FIG. 8A) and Dip-P-113 (FIG. 8C) induced a relatively high amount of cytochrome c compared to Bip-P-113 (FIG. 8B). In the Nal-P-113 (FIG. 8A) treated group, the amount of cytochrome c release has come to a maximal value of nearly 25 ng/mL at 2 hours while the minimum value of 10 ng/mL at 30 minutes has been observed. The highest amounts of cytochrome c detected in the supernatant for Dip-P-113 (FIG. 8C) was around 35 ng/mL at 4 hours and the lower amount around 18 ng/mL at 30 minutes.

[6] = test system: MN-11 cells; assay: Tumor re-challenge of cured animals; format: in vivo, C57BL/6 mice; conditions: n=5
Method: Tumor size was measured every 2 days using a caliper, and the volume of tumors was calculated using the following formula: Tumor size (mm^3) = 0.5×(width^2×length). The survival rates of tumor-bearing mice were observed and recorded

In the case of `CC(=O)N[C@@H](C)C(=O)N[C@@H](CCCCN)C(=O)N[C@@H](CCCNC(=N)N)C(=O)N[C@@H](Cc1ccc2ccccc2c1)C(=O)N[C@@H](Cc1ccc2ccccc2c1)C(=O)NCC(=O)N[C@@H](Cc1ccc(O)cc1)C(=O)N[C@@H](CCCCN)C(=O)N[C@@H](CCCNC(=N)N)C(=O)N[C@@H](CCCCN)C(=O)N[C@@H](Cc1ccccc1)C(=O)N[C@@H](Cc1ccc2ccccc2c1)C(N)=O` [SEQ ID NO:3, Ac-AKR Nal Nal GYKRKFNal-NH2] (Ac-AKR[2Nal][2Nal]GYKRKF[2Nal]-NH2), the cell survival rate [1] is reported as roughly 50%, the HMGB1 in supernatant ([2]; MN-11, 2× IC50, 1 hour) is reported as “observed in the supernatant” and the HMGB1 in supernatant ([2]; MN-11, 2× IC50, 4 hours) is reported as “still a significant concentration”. For the same compound, the “fluorescence intensity of cellular ROS (ROS production)” value [3] was “did not change”, the “ATP release, highest value (relative light unit)” value [4] was “around 10,000 RLU” and the “cytochrome c release, minimum / lower amount” value ([5]; MN-11, 2× IC50, at 30 minutes) was 10 ng/mL. For the same compound, the “cytochrome c release, maximal value” ([5]; MN-11, 2× IC50, at 2 hours) was roughly 25 ng/mL, the “protection from MN-11 cells re-challenge” value ([6]; animals with complete regression, s.c. re-challenge) was “All animals were protected” and the survival after re-challenge ([6]; until the end of the experiments (55 days)) was “stayed alive”.
